Test results reported in ChEMBL document CHEMBL1158779, “Sulfur-containing polybromoindoles from the Formosan red alga Laurencia brongniartii” (J Nat Prod, 2005).
Activity calls are given as the source filed them. The rule behind the calls is not given here.

Columns and labels:
[1] = system: P388; assay: Cytotoxicity against mouse P388 cells; assay type: functional, cell-based
[2] = system: HT-29; assay: Cytotoxicity against human HT-29 cells; assay type: functional, cell-based

Row | Compound | Activity [1] | Activity [2]
1 | C[S+]([O-])c1c(Br)[nH]c2cc(Br)cc(Br)c12 (centres undefined) | inactive | inactive
2 | CSc1c([S+](C)[O-])[nH]c2cc(Br)c(Br)c(Br)c12 (centres undefined) | inactive | inactive
3 | CSc1[nH]c2cc(Br)cc(Br)c2c1-c1c([S+](C)[O-])[nH]c2cc(Br)cc(Br)c12 (centres undefined) | Active | Active
4 | C[S+]([O-])c1[nH]c2cc(Br)cc(Br)c2c1-c1c([S+](C)[O-])[nH]c2cc(Br)cc(Br)c12 (centres undefined) | Active | inactive
5 | CSc1c(Br)[nH]c2cc(Br)c(Br)c(Br)c12 | inactive | inactive
6 | CSc1c([S+](C)[O-])[nH]c2cc(Br)cc(Br)c12 (centres undefined) | inactive | inactive
7 | CSc1[nH]c2cc(Br)cc(Br)c2c1SC | inactive | inactive
8 | CSc1cc2c(Br)cc(Br)cc2[nH]1 | inactive | inactive
9 | CSc1[nH]c2cc(Br)c(Br)c(Br)c2c1SC | inactive | inactive
10 | CSc1c(Br)[nH]c2cc(Br)cc(Br)c12 | inactive | inactive
11 | C[S+]([O-])c1[nH]c2cc(Br)cc(Br)c2c1[S+](C)[O-] (centres undefined) | inactive | inactive
12 | CSc1[nH]c2cc(Br)cc(Br)c2c1-c1c(SC)[nH]c2cc(Br)cc(Br)c12 | inactive | inactive
